Measurements as given in patent US6638973B2, “Taxane formulations” (FSU Research Foundation, Inc., priority 2000, dated 2003).
pIC50: −log10 of the molar value. Like-named read-outs stand apart in the source and are kept apart here.

Tested on: HCT116 cells
Test: In vitro cytotoxicity measured by the cell colony formation assay
Format: cell-based
Settings: colonies counted after 7 days, read-out: IN VITRO ID 50 (nm) HCT116
Outline: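 Colony-forming survival was scored 7 days after a 72 h, 37 °C compound exposure followed by washout into fresh medium.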

[1] = HCT116 cells, colony formation, 72 h incubation with drug, ID50 = drug concentration producing 50% inhibition of colony formation
[2] = HCT116 cells, 72 h incubation with drug, ID50 = drug concentration producing 50% inhibition of colony formation
[3] = HCT116 colony formation, 72 h drug incubation, Example 10, C-10 ester/C-7 hydroxy taxanes
[4] = HCT116 colony formation, 72 h drug incubation, Example 5, C-7 ester/C-10 hydroxy taxanes

`CCNC(=O)O[C@H]1C(=O)[C@@]2(C)C([C@H](OC(=O)c3ccccc3)[C@]3(O)C[C@H](OC(=O)[C@H](O)[C@@H](NC(=O)OC(C)(C)C)c4cccs4)C(C)=C1C3(C)C)[C@]1(OC(C)=O)CO[C@@H]1C[C@@H]2O` (some centres unmarked) [Compound 2722, 3′-Desphenyl-3′-(2-thienyl)-10-N-ethylcarbamoyl docetaxel] was tested, and the pIC50 [1] was over 9.00.
In the case of `CCOC(=O)O[C@H]1C(=O)[C@@]2(C)C([C@H](OC(=O)c3ccccc3)[C@]3(O)C[C@H](OC(=O)[C@H](O)[C@@H](NC(=O)OC(C)(C)C)C4CCC4)C(C)=C1C3(C)C)[C@]1(OC(C)=O)CO[C@@H]1C[C@@H]2O` (some centres unmarked) [Compound 1855], the pIC50 [2] was over 8.00.
With `CCC(=O)O[C@H]1C(=O)[C@@]2(C)C([C@H](OC(=O)c3ccccc3)[C@]3(O)C[C@H](OC(=O)[C@H](O)[C@@H](NC(=O)OC(C)(C)C)c4ccoc4)C(C)=C1C3(C)C)[C@]1(OC(C)=O)CO[C@@H]1C[C@@H]2O` (some centres unmarked) [Compound 0549] the pIC50 [3] was over 8.00.
With `C/C=C/C(=O)N[C@@H](c1ccoc1)[C@@H](O)C(=O)O[C@H]1C[C@@]2(O)[C@@H](OC(=O)c3ccccc3)C3[C@](C)(C(=O)[C@H](O)C(=C1C)C2(C)C)[C@@H](OC(=O)CCC)C[C@H]1OC[C@@]31OC(C)=O` (some centres unmarked) [Compound 4939] the pIC50 [4] was over 9.00.
Work on `CCC(=O)O[C@H]1C(=O)[C@@]2(C)C([C@H](OC(=O)c3ccccc3)[C@]3(O)C[C@H](OC(=O)[C@H](O)[C@H](C=C(C)C)NC(=O)OC(C)(C)C)C(C)=C1C3(C)C)[C@]1(OC(C)=O)CO[C@@H]1C[C@@H]2O` (some centres unmarked) [Compound 0499] yielded a pIC50 [3] of over 9.00.
Compound `COC(=O)O[C@H]1C[C@H]2OC[C@@]2(OC(C)=O)C2[C@H](OC(=O)c3ccccc3)[C@]3(O)C[C@H](OC(=O)[C@H](O)[C@@H](NC(=O)OCC(C)C)c4cccs4)C(C)=C([C@@H](O)C(=O)[C@@]21C)C3(C)C` (some centres unmarked) [Compound 4355] has a pIC50 [2] of over 9.00.
`CC(=O)OC12COC1CC(O)C1(C)C(=O)C(OC(=O)c3ccco3)C3=C(C)C(OC(=O)C(O)C(NC(=O)OC(C)(C)C)c4ccoc4)CC(O)(C(OC(=O)c4ccccc4)C21)C3(C)C` (centres unmarked) [Compound 2159] was tested, and the pIC50 [3] was over 9.00.
`CCCC(=O)O[C@H]1C[C@H]2OC[C@@]2(OC(C)=O)C2[C@H](OC(=O)c3ccccc3)[C@]3(O)C[C@H](OC(=O)[C@H](O)[C@@H](NC(=O)c4cccs4)c4cccs4)C(C)=C([C@@H](O)C(=O)[C@@]21C)C3(C)C` (some centres unmarked) [Compound 4454] showed a pIC50 [4] of over 9.00.
Work on `CC(=O)O[C@@]12CO[C@@H]1C[C@H](OC(=O)OCc1ccccc1)[C@@]1(C)C(=O)[C@H](O)C3=C(C)[C@@H](OC(=O)[C@H](O)[C@@H](NC(=O)OC(C)(C)C)c4ccco4)C[C@@](O)([C@@H](OC(=O)c4ccccc4)C12)C3(C)C` (some centres unmarked) [Compound 5433] yielded a pIC50 [2] of over 9.00.
Work on `C/C=C/C(=O)N[C@@H](c1ccco1)[C@@H](O)C(=O)O[C@H]1C[C@@]2(O)[C@@H](OC(=O)c3ccccc3)C3[C@](C)(C(=O)[C@H](O)C(=C1C)C2(C)C)[C@@H](OC(=O)OC)C[C@H]1OC[C@@]31OC(C)=O` (some centres unmarked) [Compound 4744] yielded a pIC50 [2] of over 9.00.
Compound `CC(=O)O[C@@]12CO[C@@H]1C[C@H](O)[C@@]1(C)C(=O)[C@H](OC(=O)C3CC3)C3=C(C)[C@@H](OC(=O)[C@H](O)[C@@H](NC(=O)OC(C)(C)C)c4ccsc4)C[C@@](O)([C@@H](OC(=O)c4ccccc4)C12)C3(C)C` (some centres unmarked) [Compound 2794] has a pIC50 [3] of over 9.00.
`CCNC(=O)O[C@H]1C(=O)[C@@]2(C)C([C@H](OC(=O)c3ccccc3)[C@]3(O)C[C@H](OC(=O)[C@H](O)[C@@H](NC(=O)OC(C)(C)C)c4ccsc4)C(C)=C1C3(C)C)[C@]1(OC(C)=O)CO[C@@H]1C[C@@H]2O` (some centres unmarked) [Compound 2622] gave a pIC50 [1] of over 9.00.
With `CCNC(=O)O[C@H]1C(=O)[C@@]2(C)C([C@H](OC(=O)c3ccccc3)[C@]3(O)C[C@H](OC(=O)[C@H](O)[C@@H](NC(=O)OC(C)(C)C)c4ccccn4)C(C)=C1C3(C)C)[C@]1(OC(C)=O)CO[C@@H]1C[C@@H]2O` (some centres unmarked) [Compound 2600] the pIC50 [1] was over 9.00.
With `CC(=O)O[C@@]12CO[C@@H]1C[C@H](O)[C@@]1(C)C(=O)[C@H](OC(=O)C3CC3)C3=C(C)[C@@H](OC(=O)[C@H](O)[C@@H](NC(=O)c4ccccc4)c4ccccn4)C[C@@](O)([C@@H](OC(=O)c4ccccc4)C12)C3(C)C` (some centres unmarked) [Compound 2844] the pIC50 [3] was over 8.00.
